# Experiment: method code SF-AS, from DOI: 10.1002/jps.2600800814, PMID: 1791539
row,SMILES,logP
1,COc1cnc(N(C)C)cn1,1.65
2,Cc1cncc(N(C)C)n1,1.57
3,COC(=O)c1cncc(N(C)C)n1,0.9
4,Cc1cncc(C)n1,0.54
5,COc1cncc(C(N)=O)n1,0.13
6,COc1cnc(N)cn1,0.63
7,CCc1nccnc1C,1.07
8,CCOC(=O)c1nccnc1C(=O)OCC,0.65
9,COC(=O)c1cncc(Cl)n1,0.47
10,Cc1cncc(C(N)=O)n1,-0.13
11,CCOC(=O)c1cncc(N(C)C)n1,1.24
12,Fc1cncc(F)n1,0.74
13,Cc1cncc(N)n1,0.35
14,NC(=O)c1cncc(Cl)n1,0.28
15,Nc1cnc(Cl)cn1,0.67
16,CN(C)c1cnc(Cl)cn1,1.7
17,Fc1cncc(Cl)n1,1.15
18,CN(C)c1cncc(C(N)=O)n1,0.38
19,Cc1cnc(C)c(C)n1,0.95
20,CC(=O)Nc1cncc(C)n1,0.38
21,CC(=O)Nc1cncc(Cl)n1,1.1
22,Nc1cncc(Cl)n1,0.95
23,Clc1cnc(Cl)cn1,1.58
24,COc1cncc(OC)n1,1.58
25,COC(=O)c1cnc(C)cn1,0.17

row,SMILES,logP
1,COc1cncc(C)n1,1.29
2,CCOc1nccnc1C,1.82
3,COc1nccnc1C,1.24
4,CCOc1cncc(OC)n1,1.98
5,COc1cncc(N(C)C)n1,1.99
6,Cc1cnc(C(N)=O)cn1,-0.25
7,COc1cnc(Cl)cn1,1.52
8,Nc1cncc(N)n1,-0.45
9,CCc1nccnc1OC,1.8
10,CC(=O)Nc1cnc(Cl)cn1,0.56
11,CCOC(=O)c1cncc(OC)n1,1.2
12,COc1cnc(OC)cn1,1.14
13,COc1cncc(NC(C)=O)n1,0.82
14,COC(=O)c1cncc(OC)n1,0.69
15,COC(=O)c1cncc(C)n1,0.1
16,COC(=O)c1nccnc1C(=O)OC,-0.02
17,Cc1cnc(Cl)cn1,1.08
18,CCOC(=O)c1cncc(C)n1,0.51
19,Clc1cncc(Cl)n1,1.53
20,CSc1nccnc1C,1.81
21,COc1cncc(N)n1,0.73
22,CCOC(=O)c1cnc(C)cn1,0.61
23,Cc1nccnc1OC(C)C,2.24
24,Cc1nccnc1C,0.54
25,CCOc1cncc(C(N)=O)n1,0.61

# Further lines, results first:
row,logP,SMILES
1,1.51,CCc1nccnc1CC
2,1.57,CCCc1nccnc1C
3,2.55,CCOc1cncc(OCC)n1
4,2.71,CCCOc1cncc(Cl)n1
5,2.89,CCCCc1nc(C#N)c(C#N)nc1Cl
6,1.99,CCOc1cnc(Cl)cn1
7,1.65,COc1cncc(Cl)n1
8,2.22,CCOc1cncc(Cl)n1
9,1.95,CCc1ncc(C)nc1CC
10,1.28,Cc1nc(C)c(C)nc1C
11,0.95,COc1cncc(C#N)n1
12,1.95,CN(C)c1cncc(Cl)n1
13,0.26,Cc1cnc(C#N)cn1
14,2.3,CCCCc1nc(C#N)c(C#N)nc1C
15,0.95,N#Cc1ncc(Cl)nc1C#N
16,2.1,CCCCc1nccnc1C
17,1.03,Cc1cncc(Cl)n1
18,1.79,CCc1nc(C#N)c(C#N)nc1Cl
19,0.79,N#Cc1cncc(Cl)n1
20,0.44,Cc1cncc(C#N)n1
21,1.29,Cc1nc(C#N)c(C#N)nc1Cl
22,0.38,N#Cc1nccnc1C#N
23,1.12,CN(C)c1cncc(C#N)n1
24,1.5,Cc1cnc(C)c(Cl)n1

# — the SangsterLogP compilation
